Test results taken from ChEMBL document CHEMBL1152547, “Synthesis and evaluation of anticancer activity of 2-arylamino-6-trifluoromethyl-3-(hydrazonocarbonyl)pyridines” (Bioorg Med Chem, 2009).

Legend:
TK-10 = test: Cytotoxicity against human TK10 cells after 48 hrs by sulforhodamine B assay; format: functional; details: TK-10, 48 h
EKVX = test: Cytotoxicity against human EKVX cells after 48 hrs by sulforhodamine B assay; format: functional
[1] = Toxicity in ip dosed athymic mouse assessed as lethality administered as single dose measured after 2 weeks; format: organism-based; details: in vivo
MDA-MB-231 = test: Cytotoxicity against human MDA-MB-231 cells after 48 hrs by sulforhodamine B assay; format: functional; details: MDA-MB-231, 48 h
CAKI-1 = test: Cytotoxicity against human Caki1 cells after 48 hrs by sulforhodamine B assay; format: functional; details: CAKI-1, 48 h
[2] = Cytotoxicity against human NCI60 cells after 48 hrs by sulforhodamine B assay; format: functional; details: NCI60, 48 h, read-out: pTGI (converted)
MDA-MB-468 = test: Cytotoxicity against human MDA-MB-468 cells after 48 hrs by sulforhodamine B assay; format: functional; details: MDA-MB-468, 48 h
MCF7 = test: Cytotoxicity against human MCF7 cells after 48 hrs by sulforhodamine B assay; format: functional; details: MCF7, 48 h
HOP-92 = test: Cytotoxicity against human HOP92 cells after 48 hrs by sulforhodamine B assay; format: functional; details: HOP-92, 48 h
SF-295 = test: Cytotoxicity against human SF295 cells after 48 hrs by sulforhodamine B assay; format: functional; details: SF-295, 48 h
[3] = Cytotoxicity against human NCI60 cells assessed as cell growth at 10 uM after 48 hrs by sulforhodamine B assay; format: functional; details: NCI60, 48 h, read-out: Activity
PC-3 = test: Cytotoxicity against human PC3 cells after 48 hrs by sulforhodamine B assay; format: functional; details: PC-3, 48 h
T47D = test: Cytotoxicity against human T47D cells after 48 hrs by sulforhodamine B assay; format: functional
[4] = Toxicity in ip dosed athymic mouse assessed as body weight loss administered as single dose measured after 2 weeks; format: organism-based; details: in vivo
BT-549 = test: Cytotoxicity against human BT549 cells after 48 hrs by sulforhodamine B assay; format: functional; details: BT-549, 48 h
NCI-H226 = test: Cytotoxicity against human NCI-H226 cells after 48 hrs by sulforhodamine B assay; format: functional; details: NCI-H226, 48 h

`Cc1cc(Cl)ccc1Nc1nc(C(F)(F)F)ccc1C(=O)N/N=C/c1c(Cl)cccc1Cl` showed a GI50 (TK-10) of 224 nM, a TGI (TK-10; read-out: pTGI (converted)) of 794 nM and a GI50 (EKVX) of 195 nM. For the same compound, the TGI (EKVX; read-out: pTGI (converted)) was 708 nM, the MTD at 336 h [1] was 400 mg/kg and the GI50 (MDA-MB-231) was 155 nM. The TGI (MDA-MB-231; read-out: pTGI (converted)) was 851 nM, the GI50 (CAKI-1) was 12.6 nM and the CC50 (CAKI-1; read-out: pLC50 (the source's name) (converted)) was 43700 nM. For the same compound, the TGI (CAKI-1; read-out: pTGI (converted)) was 324 nM, the TGI [2] was 11700 nM and the GI50 (MDA-MB-468) was 275 nM. The TGI (MDA-MB-468; read-out: pTGI (converted)) was 851 nM, the GI50 (MCF7) was 234 nM and the TGI (MCF7; read-out: pTGI (converted)) was 741 nM. The GI50 (HOP-92) was 191 nM, the TGI (HOP-92; read-out: pTGI (converted)) was 537 nM and the GI50 (SF-295) was 24 nM. The TGI (SF-295; read-out: pTGI (converted)) was 295 nM, the growth at 10 µM [3] was -6.89% and the GI50 (PC-3) was 229 nM. It also gave a TGI (PC-3; read-out: pTGI (converted)) of 871 nM, a GI50 (T47D) of 224 nM and a TGI (T47D; read-out: pTGI (converted)) of 794 nM. It also gave an MTD at 336 h [4] of 400 mg/kg, a GI50 (BT-549) of 195 nM and a TGI (BT-549; read-out: pTGI (converted)) of 676 nM. The GI50 (NCI-H226) was 135 nM and the TGI (NCI-H226; read-out: pTGI (converted)) was 525 nM.
